In patent US20100160391A1, “Substituted Aminopyridines as Fluorescent Reporters for Amide Hydrolases” (priority 2006, published 2010):
Where two headings read alike, the source gives them in different places. Marks after values point to notes of the source that are not given here. Values belong to the molecule of their own block, whether it stands above or below them.

Legend:
amidases, human liver S9 = test: Specific activity, human liver S9; format: biochemical; conditions: pH 8.0, 37° C.; NM = not measurable at the same protein concentration as other substrates
Procedure: Comparison of the lowest detection limits of protein concentration of FAAH toward colorimetric and fluorescent substrates. In general, all assays were performed in 96-well styrene flat-bottom microtiter plates with a Spectra Max M2 spectrophotometer at 37° C. for […]. The total volume of each well was 201 μl consisting of 0.1 M sodium phosphate buffer (pH 8.0) (190 μl) containing 1% glycerol and 0.1% Triton-X 100, stock or diluted protein solution (10 μl), and the substrate solution (1 μl) in ethanol (final concentration 200 μM for 10, 11, 13 or 14) or in DMSO (final concentration 25 μM for 12, 15, or 16; 50 μM for 17). The lowest detection limits of microsomal fatty acid amide hydrolase (FAAH) by substrates were determined by the fact that the signal at 10 min after kinetic measurements are equal to or over three times the noise or basal line at 0 min. Colorimetric substrate (16) assays were performed in clear 96-well microtititer plates using an absorbance wavelength at 382 nm. The fluorescent substrates containing 5-amino-2-methoxypyridine (e.g., 10, 13) were measured at an excitation wavelength (302 nm), emission wavelength (396 nm), and auto cutoff wavelength (325 nm). […]

[1] = test system: amidases, human liver microsomes; test: Specific activity, human liver microsomes; format: biochemical; conditions: for Specific activity, Human liver microsomes: pH 8.0, 37° C., NM = not measurable at the same protein concentration as other substrates
Procedure: (§1) Comparison of the lowest detection limits of protein concentration of FAAH toward colorimetric and fluorescent substrates. In general, all assays were performed in 96-well styrene flat-bottom microtiter plates with a Spectra Max M2 spectrophotometer at 37° C. for […]. The total volume of each well was 201 μl consisting of 0.1 M sodium phosphate buffer (pH 8.0) (190 μl) containing 1% glycerol and 0.1% Triton-X 100, stock or diluted protein solution (10 μl), and the substrate solution (1 μl) in ethanol (final concentration 200 μM for 10, 11, 13 or 14) or in DMSO (final concentration 25 μM for 12, 15, or 16; 50 μM for 17). The lowest detection limits of microsomal fatty acid amide hydrolase (FAAH) by substrates were determined by the fact that the signal at 10 min after kinetic measurements are equal to or over three times the noise or basal line at 0 min. Colorimetric substrate (16) assays were performed in clear 96-well microtititer plates using an absorbance wavelength at 382 nm. The fluorescent substrates containing 5-amino-2-methoxypyridine (e.g., 10, 13) were measured at an excitation wavelength (302 nm), emission wavelength (396 nm), and auto cutoff wavelength (325 nm). Similarly, the fluorescent substrates containing 5-amino-2-methoxy-6-methylpyridine (e.g., 11, 14, and 17) were measured at an excitation wavelength (304 nm), emission wavelength (392 nm), and an auto cutoff wavelength of 325 nm. In addition, an excitation wavelength (366 nm), emission wavelength (496 nm), and auto cutoff wavelength (495 nm) were used for the substrates (e.g., 12 and 15) containing 7-amino-4-trifluoromethyl coumarin.
Specific activity determination. The assays for specific activities were performed as described above for the sensitivity assay. The specific activity presented is based on the following: 1) the signal after a 10 min enzymatic reaction was at least 3 fold the baseline signal at 0 min, and 2) the amount of hydrolyzed substrate during a 10 min period was less than 10% of the total amount of the substrate added. To correct for protein-induced fluorescence quenching, a standard curve of 5-amino-2-methoxypyridine (6) or 5-amino-2-methoxy-6-methylpyridine (8) was constructed in the presence of the same protein concentration used for the assay of that enzyme.

[2] = Molar extinction coefficient of fluorescent reporters; format: physicochemical; conditions: H2O containing 1% ethanol, 290 nm, 30° C., 10-50 μM
Procedure: Molar extinction coefficient. According to Beer's law, Aλ=ε*C*L, where Aλ is the absorbance at wavelength (λ nm); ε is called the molar extinction coefficient; L is the width of the sample cuvette; and C is the concentration of the solute. In this example, a series of concentrations falling between 10 and 50 μM (final concentration) for each fluorescent reporter was used for determination of the molar extinction coefficient. Assays were performed in a quartz cuvette (1 cm optical passage). 10 μl of a stock solution of a reporter in ethanol (1, 2, 3, 4, or 5 mM) was added to 990 μl H2O. The resulting mixture was degassed by sonication with ultrasonic cleaner Model 750 (VWR International; Wester, Pa.) for 10 seconds at a power level of 9. Measurements were performed with a Spectra Max M2 spectrophotometer (Molecular Devices; Sunnyvale, Calif.) at a wavelength of 290 nm. A slope (or extinction coefficient) was obtained by using an average absorbance of triplicate samples.

[3] = Maximal excitation and emission wavelengths; format: physicochemical; conditions: 50 μM in 0.1 M phosphate buffer, 30° C.; SD ±2 nm
Procedure: Maximal excitation and emission wavelengths. A stock solution in ethanol of each compound (10 μl, 5 mM) was added to 990 μl of sodium phosphate buffer (0.1 M, pH 8.0, final substrate concentration 50 μM) in a 1-cm quartz cuvette. The quartz cuvette was scanned from 200 to 500 nm for absorption spectra with a Spectra Max M2 spectrophotometer. Maximal excitation and emission wavelengths were obtained from scanning from 250 to 600 nm and 360 to 600 nm by a 2 nm interval at 30° C., respectively.

[4] = cited from earlier work; for ØF, fluorescence quantum yield: in water, literature value
[5] = 3-aminopyridine in water, from Weisstuch et al.; cited from earlier work
FAAH [6] = test: FAAH kinetic data of literature substrates; format: biochemical; conditions: Vmax/Km of substrate over that of oleamide (5.5 × 10^−2)
FAAH [7] = conditions: from Ramarao et al. (AAMCA), De Bank et al. (oleamide); cited from earlier work
[8] = test system: amidases, microsomes from High Five cells; test: Specific activity, microsomes from High Five cells; conditions: pH 8.0, 37° C.; NM = not measurable at the same protein concentration as other substrates
Procedure: Preparation of recombinant human FAAH. Transgenic expression of the human FAAH in a baculovirus system was performed by following the method described in Nishi et al., Arch. […] The cDNA encoding human FAAH (GenBank Accession No. NM—001441) was amplified by PCR using a human liver cDNA library (Invitrogen; Carlsbad, Calif.) as a template. The primer pair was 5′-[sequence]-3′ and 5′-[sequence]-3′. BglII and EcoRI endonuclease sites (underlined) were incorporated just upstream of the start codon and downstream of the stop codon of the coding sequence of FAAH, respectively. The PCR products were cloned into a pCR2.1 vector (Invitrogen) and the nucleotide sequence was verified by DNA sequencing. The cDNA fragments were then excised and directionally ligated to the BglII and EcoRI sites of the baculovirus transfer vector pAcUW21 (Lopez-Ferber et al., Baculovirus transfer vectors, in “Baculovirus Expression Protocols,” Richardson (Ed.), pp 25-63, Humana Press, Totowa, N.J., 1995). Recombinant baculoviruses harboring the human FAAH gene, Ac-hFAAH, were generated by co-transfection of Spodoptera frugiperda-derived Sf21 cells with the recombinant transfer vector plasmid and Bsu36I-cleaved BacPAK6 viral DNA (Clontech Laboratories; Mountain View, Calif.) as described in O'Reilly et al., Baculovirus Expression Vectors: A Laboratory Manual, Oxford University Press, New York, 1992. Trichoplusia ni-derived High Five cells (1×10^6 cells/ml) were inoculated with a high titer of Ac-hFAAH. At 72 hours post-infection, the infected cells were harvested by centrifugation at 2,000×g for 20 min at 4° C. and suspended in 50 mM Tris-HCl (pH 8.0) containing 150 mM NaCl, 1 mM EDTA, 1 μM pepstatin, 100 μM leupeptin, and 0.1 mg/ml aprotinin. The cell suspension was then homogenized using a Polytron homogenizer and centrifuged at 10,000×g for 20 min at 4° C. […]
Comparison of the lowest detection limits of protein concentration of FAAH toward colorimetric and fluorescent substrates. […] The lowest detection limits of microsomal fatty acid amide hydrolase (FAAH) by substrates were determined by the fact that the signal at 10 min after kinetic measurements are equal to or over three times the noise or basal line at 0 min. Colorimetric substrate (16) assays were performed in clear 96-well microtititer plates using an absorbance wavelength at 382 nm. The fluorescent substrates containing 5-amino-2-methoxypyridine (e.g., 10, 13) were measured at an excitation wavelength (302 nm), emission wavelength (396 nm), and auto cutoff wavelength (325 nm). Similarly, the fluorescent substrates containing 5-amino-2-methoxy-6-methylpyridine (e.g., 11, 14, and 17) were measured at an excitation wavelength (304 nm), emission wavelength (392 nm), and an auto cutoff wavelength of 325 nm. […]

[9] = target: T1, microsomal fatty acid amide hydrolase (FAAH) (Homo sapiens, UniProt O00519); test: Lowest detection limits of microsomal FAAH toward colorimetric and fluorescent substrates; format: biochemical
T1 construct: made in house; host or cells: Trichoplusia ni High Five cells infected with recombinant baculovirus Ac-hFAAH; microsomal fraction
T1 sequence (O00519 1-579): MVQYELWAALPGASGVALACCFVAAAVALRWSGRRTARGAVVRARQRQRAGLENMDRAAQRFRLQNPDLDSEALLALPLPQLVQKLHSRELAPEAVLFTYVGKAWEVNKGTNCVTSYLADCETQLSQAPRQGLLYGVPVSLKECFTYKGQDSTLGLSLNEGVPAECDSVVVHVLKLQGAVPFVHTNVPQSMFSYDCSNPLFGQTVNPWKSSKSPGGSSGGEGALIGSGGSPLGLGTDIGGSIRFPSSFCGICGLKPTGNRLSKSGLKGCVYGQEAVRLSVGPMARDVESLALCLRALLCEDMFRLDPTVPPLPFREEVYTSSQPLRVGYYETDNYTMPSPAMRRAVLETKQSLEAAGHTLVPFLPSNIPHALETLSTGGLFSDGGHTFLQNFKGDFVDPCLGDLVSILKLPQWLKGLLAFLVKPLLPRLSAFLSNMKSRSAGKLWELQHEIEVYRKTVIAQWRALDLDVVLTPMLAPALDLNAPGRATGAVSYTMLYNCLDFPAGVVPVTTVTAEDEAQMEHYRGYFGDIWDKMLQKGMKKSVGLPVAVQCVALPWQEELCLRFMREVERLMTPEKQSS
Procedure: (§2) Preparation of recombinant human FAAH. Transgenic expression of the human FAAH in a baculovirus system was performed by following the method described in Nishi et al., Arch. Biochem. Biophys., 445:115-123 (2006). The cDNA encoding human FAAH (GenBank Accession No. NM_001441) was amplified by PCR using a human liver cDNA library (Invitrogen; Carlsbad, Calif.) as a template. The primer pair was 5′-[…]-3′ and 5′-[…]-3′. BglII and EcoRI endonuclease sites (underlined) were incorporated just upstream of the start codon and downstream of the stop codon of the coding sequence of FAAH, respectively. The PCR products were cloned into a pCR2.1 vector (Invitrogen) and the nucleotide sequence was verified by DNA sequencing. The cDNA fragments were then excised and directionally ligated to the BglII and EcoRI sites of the baculovirus transfer vector pAcUW21 (Lopez-Ferber et al., Baculovirus transfer vectors, in “Baculovirus Expression Protocols,” Richardson (Ed.), pp 25-63, Humana Press, Totowa, N.J., 1995). Recombinant baculoviruses harboring the human FAAH gene, Ac-hFAAH, were generated by co-transfection of Spodoptera frugiperda-derived Sf21 cells with the recombinant transfer vector plasmid and Bsu36I-cleaved BacPAK6 viral DNA (Clontech Laboratories; Mountain View, Calif.) as described in O'Reilly et al., Baculovirus Expression Vectors: A Laboratory Manual, Oxford University Press, New York, 1992. Trichoplusia ni-derived High Five cells (1×10^6 cells/ml) were inoculated with a high titer of Ac-hFAAH. At 72 hours post-infection, the infected cells were harvested by centrifugation at 2,000×g for 20 min at 4° C. and suspended in 50 mM Tris-HCl (pH 8.0) containing 150 mM NaCl, 1 mM EDTA, 1 μM pepstatin, 100 μM leupeptin, and 0.1 mg/ml aprotinin. The cell suspension was then homogenized using a Polytron homogenizer and centrifuged at 10,000×g for 20 min at 4° C. The microsomal fraction was collected by ultracentrifugation of the supernatant at 100,000×g for 60 min at 4° C. The pellet was resuspended in 20 mM Tris-HCl (pH 8.0) containing 10% (w/v) glycerol and 1% (w/v) Triton-X 100 and stored at −80° C. until use.
as §1

[10] = target: T2, human FAAH, microsomes from FAAH cells (Homo sapiens, UniProt O00519); test: Specific activity, microsomes from FAAH cells; format: biochemical
T2 construct: made in house; host or cells: Trichoplusia ni High Five cells infected with recombinant baculovirus Ac-hFAAH; microsomal fraction
T2 sequence (O00519 1-579): T1 sequence (O00519 1-579)
Procedure: as §2, §1
Specific activity determination. The assays for specific activities were performed as described above for the sensitivity assay. […]

[11] = Comparison of aqueous solubility of substrates (absorbance at 800 nm); format: physicochemical; conditions: 0.1 M phosphate buffer (pH 8.0), 1% ethanol, 37° C.
Procedure: Comparison of aqueous solubility of substrates. The aqueous solubility of the aminopyridine derivatives (e.g., 13, 14) and the 7-aminocoumarin derivative (e.g., 15) was determined in clear 96-well styrene flat-bottom microtiter plates with a Spectra Max M2 spectrophotometer. Different concentrations of the substrates (13, 14 and 15; final concentration: 0.39, 0.78, 1.56, 3.13, 6.25, 12.5, 25, 50, 100, or 200 μM) in 200 μl 0.1 M sodium phosphate buffer (1% ethanol; pH 8.0) were used and the absorbance was recorded at a wavelength of 800 nm at 37° C. The measurements were performed in three replicates for each concentration.

- melting point: 109.3 to 111.4 °C
- Specific activity, Human liver S9 (amidases, human liver S9): 0.18 ± 0.02 nmol/min/mg protein
- Specific activity, Human liver microsomes [1]: 0.66 ± 0.06 nmol/min/mg protein
Structure (SMILES): CC(=O)Nc1ccc2c(C(F)(F)F)cc(=O)oc2c1 [Compound 12, N-(4-(trifluoromethyl)-2-oxo-2H-chromen-7-yl) acetamide]

Structure (SMILES): Nc1cccnc1 [Compound 1, 3-aminopyridine]
- εmax, molar extinction coefficient [2]: 2890 M⁻¹ cm⁻¹
- Em, maximal emission wavelength [3]: 378 nm
- Ex, maximal excitation wavelength [3]: 286 nm
- quantum yield ([4]; in 0.1 NH2SO4, Rusakowicz et al.): 1.07
- quantum yield ([4]; in 1 N NaOH, Rusakowicz et al.): 0.03
- ØF, fluorescence quantum yield [4]: 0.32^d
- ØF, fluorescence quantum yield ([4]; listed as 3-aminopyridine): 0.32
- εmax, molar extinction coefficient [5]: 2800 M⁻¹ cm⁻¹

Structure (SMILES): CCCCCC=CCC=CCC=CCC=CCCCC(=O)Nc1ccc2c(C)cc(=O)oc2c1 [AAMCA, arachidonyl 7-amino-4-methylcoumarin amide]
- Selectivity ratio (FAAH [6]): 2.2
- Km (FAAH [7]): 0.48 µM
- Vmax (FAAH [7]): 0.058 nmol/min/mg

Structure (SMILES): CCCCCCCC/C=C\CCCCCCCC(N)=O [Oleamide, oleamide]
- Selectivity ratio (FAAH [6]): 1.0
- Km (FAAH [7]): 104 µM
- Vmax (FAAH [7]): 5.7 nmol/min/mg

Structure (SMILES): CCCCCCCC(=O)Nc1ccc(OC)nc1C [Compound 14, N-(6-methoxy-2-methylpyridin-3-yl) octanamide]
- melting point: 67.4 to 68.2 °C
- Specific activity, Human liver S9 (amidases, human liver S9): 0.42 ± 0.01 nmol/min/mg protein
- Specific activity, Microsomes from High Five cells [8]: 591 ± 18.4 pmol/min/mg protein
- base line, Average ([9]; 0 min, protein 0.11 (13), 0.67 (14), 100 (15), 0.5 (17) μg/well, 200 μM (13),(14), 25 μM (15), 50 μM (17)): 194 RFU
- signal, Average ([9]; 10 min, protein 0.11 (13), 0.67 (14), 100 (15), 0.5 (17) μg/well, 200 μM (13),(14), 25 μM (15), 50 μM (17)): 728* RFU
- Protein, lowest detection limit of microsomal FAAH (signal at 10 min ≥ three times base line) ([9]; pH 8.0, 37° C., 200 μM (13), (14), 50 μM (17)): 0.67 μg/200 μ′
- lowest detection limit of protein ([9]; signal at 10 min equal to three times base line): 3.3 μg protein/ml
- preference of human liver microsomes for substrate (14) over (13) ([1]; Table 4): at least 15 times
- Specific activity, Human liver microsomes [1]: 6.90 ± 0.25 nmol/min/mg protein
- enhancement of activity, microsomes from FAAH-expressing cells compared with High Five cells [10]: 31 times
- Specific activity, Microsomes from FAAH cells ([10]; pH 8.0, 37° C., NM = not measurable at the same protein concentration as other substrates): 19.0 ± 0.5 nmol/min/mg protein
- aqueous solubility compared with coumarin substrate (15) [11]: much higher solubility
